# Source: paper PMC5538626, “Structural and functional analysis of the GABARAP interaction motif (GIM)” (EMBO Reports, 2017)
# Ends that are not written are not given here.
# Experiments:
# Format in all cases: binding
# GABARAP-L2 = target: T1, GABARAP-L2 (Homo sapiens, UniProt P60520); assay: ITC titration of PLEKHM1-LIR peptide into GABARAP-L2; conditions: 25°C, pH 7.0
# T1 construct: modified Ub-leader (ubiquitin fusion leader) (N); made in house; host or cells: E. coli NEB T7 Express
# Method: (§1) The genes for the truncated LC3A^2–121, LC3C^8–125, GABARAP^2–117 and GABARAP‐L1^2–117 proteins were cloned into pET30ΔSE vector between the BamHI and XhoI sites using previously established protocols 38. The chimeric constructs of the PLEKHM1‐LIR attached to the LC3A, GABARAP and GABARAP‐L1 proteins were prepared by inserting the oligonucleotide sequence corresponding to the PLEKHM1‐LIR peptide (P^629[…]^638) and glycine–serine linker into the BamHI site of the pET30ΔSE vector, placing the PLEKHM1‐LIR at the N‐terminal of the mature chimeric protein (similar to 31, 38). For the expression of human LC3 and GABARAP proteins for ITC and NMR experiments, plasmids with appropriate modified Ub‐leaders in pET vectors were used 39. Gene, encoding PLEKHM1‐LIR peptide, was ordered as synthetic oligonucleotides (Eurofins Genomics GmbH) and cloned into the pET39_Ub63_ vector 39 by NcoI–BamHI restriction sites. After TEV cleavage, the resulting peptide has the amino acid sequence GAMG‐P^629[…]^642, where the first four residues (GAMG) are the cloning artefact.
# (§2) The chimeric constructs were expressed as a His‐tag fusion protein in E. coli BL21(DE3) cells. The cells were induced with 0.3 mM IPTG at OD600 0.6 for 16 h at 26°C. The cell pellets were lysed using mechanical sonication in lysis buffer (20 mM Tris–HCl pH 9.0, 100 mM NaCl, 10 mM imidazole, supplemented with 0.1% Triton X‐100). The proteins were purified using Ni‐NTA beads (GE Healthcare) and the His‐tag was cleaved using thrombin (Invitrogen) at room temperature for 16 h. The last step was gel filtration chromatography using a Superdex S200/300 GL column (GE Healthcare). The proteins were concentrated using spin concentrators (Vivaspin). For ITC and NMR studies, the non‐labelled and stable isotopes labelled LC3 and GABARAP proteins were obtained based on the protocols described elsewhere 30, 39. Here, E. coli NEB T7 Express culture transformed with corresponding plasmids were grown till OD600 nm = 1.0 and protein expression was induced with 0.2 mM IPTG. The cultures were incubated at 25°C for 8–12 h before cell harvesting. Isolation and purification procedures were similar to those reported in Ref. 22, 40. Before experiments, all proteins and peptides were equilibrated with a buffer containing 50 mM Na2HPO4, 100 mM NaCl at pH 7.0, and supplied with 5 mM protease inhibitor cocktail.
# (§3) The protocol for preparation of non‐labelled and ^13C,^15N‐labelled PLEKHM1‐LIR peptide was slightly modified to achieve highest yield of the peptide. The 50 ml M9 culture was inoculated with NEB T7 cell transformed with pET39_Ub63‐PLEKHM1‐LIR plasmid and grown overnight at 37°. The collected cells were resuspended in 2 l of either LB or M9 media contained 1.5 g ^15N‐labelled NH4Cl and 3.0 g of ^13C‐labelled glucose. The cultures were grown at 37° till A(600 nm) = 0.9 and supplied with 1 mM of IPTG to induce Ub63‐PLEKHM1‐LIR overexpression (3 h at 37°). After that cells were harvested by centrifugation, re‐suspended in buffer contained 50 mM Tris–HCl pH = 7.9, 200 mM NaCl, 5% glycerol, 0.1 mg/ml DNase A and 4 mM protease inhibitor cocktail. After cell lysis by French press, debris was removed by centrifugation and clear supernatant was applied onto the column contained Ni‐NTA Sepharose equilibrated with the loading buffer (50 mM Tris–HCl pH = 7.9, 250 mM NaCl, 1% glycerol and 20 mM imidazole). Elution was performed with 400 mM imidazole in the same buffer. An aliquot of pure Ub63‐PLEKHM1‐LIR fractions was further purified by gel filtration on Superdex75 26 × 60 column for control ITC and analytical size exclusion chromatography experiments, remaining fusion protein was processed with the TEV‐protease and PLEKHM1‐LIR peptide was purified to 95% purity by reverse Ni‐NTA chromatography and followed gel filtration on Superdex75 26 × 60 column. Peak maximum of peptide was detected at […] (void volume 115 ml). Pure peptide was concentrated in Amicon concentrators with cut‐off of 3 kDa (> 95% retention). […]
# LC3A = target: T2, LC3A (Homo sapiens, UniProt Q9H492); assay: ITC titration of PLEKHM1-LIR peptide into LC3A; conditions: 25°C, pH 7.0
# T2 construct: modified Ub-leader (ubiquitin fusion leader) (N); made in house; host or cells: E. coli NEB T7 Express
# Method: as §1, §2, §3
# LC3B = target: T3, LC3B (Homo sapiens, UniProt Q9GZQ8); assay: ITC titration of PLEKHM1-LIR peptides into LC3B; conditions: ITC, 25°C, pH 7.0; for ΔH: VP-ITC, one-site model, 0.4 mM peptide into 0.020 mM protein, 50 mM Na2HPO4, 100 mM NaCl
# T3 construct: modified Ub-leader (ubiquitin fusion leader) (N); made in house; host or cells: E. coli NEB T7 Express
# Method: as §1, §2, §3
# GABARAP = target: T4, GABARAP (Homo sapiens, UniProt O95166); assay: ITC titration of PLEKHM1-LIR peptides into GABARAP; conditions: ITC; for ΔH: VP-ITC, one-site model, 0.4 mM peptide into 0.020 mM protein, 50 mM Na2HPO4, 100 mM NaCl; for K D of GABARAP lower compared to LC3B / specificity GABARAP over LC3B: GABARAP vs LC3B
# T4 construct: modified Ub-leader (ubiquitin fusion leader) (N); made in house; host or cells: E. coli NEB T7 Express
# Method: as §1, §2, §3
# [1] = VP-ITC, one-site model, 0.4 mM peptide into 0.020 mM protein, 50 mM Na2HPO4, 100 mM NaCl
# [2] = 25°C, pH 7.0, listed as PLEKHM1-LIR
# T4 sequence (O95166 whole entry, the tested form may be a part): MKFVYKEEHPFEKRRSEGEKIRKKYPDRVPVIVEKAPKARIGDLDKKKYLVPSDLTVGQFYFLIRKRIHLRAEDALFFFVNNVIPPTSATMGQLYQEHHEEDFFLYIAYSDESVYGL
# T1 sequence (P60520 whole entry, the tested form may be a part): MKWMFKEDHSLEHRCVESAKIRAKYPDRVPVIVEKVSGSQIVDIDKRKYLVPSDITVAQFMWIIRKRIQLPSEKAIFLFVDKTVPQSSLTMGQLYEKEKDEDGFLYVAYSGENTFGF
sequence,measurement,setting,value
GAMGPQQEDEWVNVQYPD [PLEKHM1‐LIR WT],ΔH,GABARAP-L2; [1],-25.5 ± 0.42 kJ/mol
same,KA,GABARAP-L2,1.07 ± 0.03 ×10^6 M^−1
same,N (number of binding sites),GABARAP-L2,1.05 ± 0.01
same,ΔG,GABARAP-L2,-34.4 kJ/mol
same,ΔS,GABARAP-L2,+7.00 cal mol^−1 K^−1
same,−T × ΔS,GABARAP-L2,-8.74 kJ/mol
same,ΔH,LC3A; [1],-29 ± 0.84 kJ/mol
same,KA,LC3A,0.24 ± 0.02 ×10^6 M^−1
same,N (number of binding sites),LC3A,0.98 ± 0.02
same,ΔG,LC3A,-30.7 kJ/mol
same,ΔS,LC3A,+1.17 cal mol^−1 K^−1
same,−T × ΔS,LC3A,-1.46 kJ/mol
same,ΔH,LC3B,-24.3 ± 0.84 kJ/mol
same,ΔH,LC3B; listed as PLEKHM1-LIR,-24.3 ± 0.84 kJ/mol
same,KA,LC3B,0.16 ± 0.01 ×10^6 M^−1
same,N (number of binding sites),LC3B,1.06 ± 0.01
same,ΔG,LC3B,-29.7 kJ/mol
same,ΔS,LC3B,+4.27 cal mol^−1 K^−1
same,−T × ΔS,LC3B,-5.31 kJ/mol
same,KA,LC3B; listed as PLEKHM1-LIR,0.16±0.01 ×10^6 M^−1
same,ΔG,LC3B; listed as PLEKHM1-LIR,-29.7 kJ/mol
same,−T × ΔS,LC3B; listed as PLEKHM1-LIR,-5.31 kJ/mol
same,ΔH,"GABARAP; 25°C, pH 7.0",-44.4 ± 0.42 kJ/mol
same,ΔH,GABARAP; [2],-44.35 ± 0.42 kJ/mol
same,KA,"GABARAP; 25°C, pH 7.0",1.8 ± 0.1 ×10^6 M^−1
same,N (number of binding sites),"GABARAP; 25°C, pH 7.0",1.00 ± 0.01
same,ΔG,"GABARAP; 25°C, pH 7.0",-35.7 kJ/mol
same,ΔS,"GABARAP; 25°C, pH 7.0",−6.92 cal mol^−1 K^−1
same,−T × ΔS,"GABARAP; 25°C, pH 7.0",+2.06 kcal mol^−1
same,KA,GABARAP; [2],1.8±0.1 ×10^6 M^−1
same,ΔG,GABARAP; [2],-35.7 kJ/mol
same,ΔS,GABARAP; [2],-6.92 cal mol^−1 K^−1
same,K D of GABARAP lower compared to LC3A (times),GABARAP; GABARAP vs LC3A,approximately eight
same,K D of GABARAP lower compared to LC3B / specificity GABARAP over LC3B,GABARAP,11 fold
same,K D of GABARAP lower compared to LC3B / specificity GABARAP over LC3B,GABARAP; listed as PLEKHM1‐LIR peptide,approximately 11 fold
